Experimental data from publication doi:10.1101/2023.03.24.534094v2 (biorxiv, 2023).
Where two headings read alike, the source gives them in different places.

What was measured:
AAK1 = AAK1 (Homo sapiens, UniProt Q2M2I8); experiment: biochemical
ABL1 = ABL1 (Homo sapiens, UniProt P00519); experiment: biochemical
CLK1 = CLK1 (Homo sapiens, UniProt P49759); experiment: biochemical
CLK3 = CLK3 (Homo sapiens, UniProt P49761); experiment: biochemical
CaMK4 = biological target: T1, CaMK4 (Homo sapiens, UniProt Q16566); experiment: biochemical
T1 sequence (Q16566 1-473): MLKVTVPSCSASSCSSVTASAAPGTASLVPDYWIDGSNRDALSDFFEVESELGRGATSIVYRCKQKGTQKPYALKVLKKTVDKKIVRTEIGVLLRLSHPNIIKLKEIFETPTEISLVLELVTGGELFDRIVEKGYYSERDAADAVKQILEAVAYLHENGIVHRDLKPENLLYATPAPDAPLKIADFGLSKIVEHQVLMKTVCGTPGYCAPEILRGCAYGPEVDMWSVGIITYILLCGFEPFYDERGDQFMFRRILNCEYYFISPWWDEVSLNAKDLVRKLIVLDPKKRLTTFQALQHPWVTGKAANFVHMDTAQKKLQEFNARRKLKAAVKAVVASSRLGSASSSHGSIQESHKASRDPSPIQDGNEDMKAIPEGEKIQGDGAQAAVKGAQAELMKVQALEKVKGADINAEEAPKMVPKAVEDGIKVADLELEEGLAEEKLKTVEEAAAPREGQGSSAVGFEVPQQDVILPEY

DAPK3 = DAPK3 (Homo sapiens, UniProt O43293); experiment: biochemical
Sequence of DAPK3 (O43293 whole entry): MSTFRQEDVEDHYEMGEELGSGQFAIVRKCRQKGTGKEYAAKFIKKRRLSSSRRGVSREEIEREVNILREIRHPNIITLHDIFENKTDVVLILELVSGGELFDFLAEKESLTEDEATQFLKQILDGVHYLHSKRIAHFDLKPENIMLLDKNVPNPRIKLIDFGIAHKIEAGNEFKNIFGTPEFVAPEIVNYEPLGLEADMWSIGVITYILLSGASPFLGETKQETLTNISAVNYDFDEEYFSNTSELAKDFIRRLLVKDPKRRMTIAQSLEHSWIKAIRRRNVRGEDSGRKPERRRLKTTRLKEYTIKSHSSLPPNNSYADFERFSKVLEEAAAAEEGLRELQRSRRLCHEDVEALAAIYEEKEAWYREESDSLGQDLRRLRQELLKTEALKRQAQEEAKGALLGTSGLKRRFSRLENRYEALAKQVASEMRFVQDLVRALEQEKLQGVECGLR

GPRK5 = GPRK5 (Homo sapiens, UniProt P34947); experiment: biochemical
Sequence of GPRK5 (P34947 whole entry): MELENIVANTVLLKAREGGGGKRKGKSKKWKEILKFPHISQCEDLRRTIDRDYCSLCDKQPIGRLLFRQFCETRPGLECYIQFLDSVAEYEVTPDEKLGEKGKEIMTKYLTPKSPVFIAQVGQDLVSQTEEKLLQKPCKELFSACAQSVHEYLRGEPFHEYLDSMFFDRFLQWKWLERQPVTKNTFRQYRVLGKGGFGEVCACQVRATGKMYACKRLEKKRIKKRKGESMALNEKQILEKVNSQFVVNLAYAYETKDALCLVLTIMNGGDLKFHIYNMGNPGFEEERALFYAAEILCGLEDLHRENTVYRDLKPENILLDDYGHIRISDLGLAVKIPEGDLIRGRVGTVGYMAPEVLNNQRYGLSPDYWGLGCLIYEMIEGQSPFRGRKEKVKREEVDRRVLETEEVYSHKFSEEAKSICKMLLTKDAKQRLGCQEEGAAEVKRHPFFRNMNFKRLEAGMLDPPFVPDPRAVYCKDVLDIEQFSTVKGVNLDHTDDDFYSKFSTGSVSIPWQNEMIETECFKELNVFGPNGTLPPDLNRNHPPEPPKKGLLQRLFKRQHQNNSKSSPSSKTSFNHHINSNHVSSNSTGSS

EpHA1 = biological target: T2, EpHA1 (Homo sapiens, UniProt P21709); experiment: NanoBRET target engagement; format: cell-based
T2 sequence (P21709 26-976): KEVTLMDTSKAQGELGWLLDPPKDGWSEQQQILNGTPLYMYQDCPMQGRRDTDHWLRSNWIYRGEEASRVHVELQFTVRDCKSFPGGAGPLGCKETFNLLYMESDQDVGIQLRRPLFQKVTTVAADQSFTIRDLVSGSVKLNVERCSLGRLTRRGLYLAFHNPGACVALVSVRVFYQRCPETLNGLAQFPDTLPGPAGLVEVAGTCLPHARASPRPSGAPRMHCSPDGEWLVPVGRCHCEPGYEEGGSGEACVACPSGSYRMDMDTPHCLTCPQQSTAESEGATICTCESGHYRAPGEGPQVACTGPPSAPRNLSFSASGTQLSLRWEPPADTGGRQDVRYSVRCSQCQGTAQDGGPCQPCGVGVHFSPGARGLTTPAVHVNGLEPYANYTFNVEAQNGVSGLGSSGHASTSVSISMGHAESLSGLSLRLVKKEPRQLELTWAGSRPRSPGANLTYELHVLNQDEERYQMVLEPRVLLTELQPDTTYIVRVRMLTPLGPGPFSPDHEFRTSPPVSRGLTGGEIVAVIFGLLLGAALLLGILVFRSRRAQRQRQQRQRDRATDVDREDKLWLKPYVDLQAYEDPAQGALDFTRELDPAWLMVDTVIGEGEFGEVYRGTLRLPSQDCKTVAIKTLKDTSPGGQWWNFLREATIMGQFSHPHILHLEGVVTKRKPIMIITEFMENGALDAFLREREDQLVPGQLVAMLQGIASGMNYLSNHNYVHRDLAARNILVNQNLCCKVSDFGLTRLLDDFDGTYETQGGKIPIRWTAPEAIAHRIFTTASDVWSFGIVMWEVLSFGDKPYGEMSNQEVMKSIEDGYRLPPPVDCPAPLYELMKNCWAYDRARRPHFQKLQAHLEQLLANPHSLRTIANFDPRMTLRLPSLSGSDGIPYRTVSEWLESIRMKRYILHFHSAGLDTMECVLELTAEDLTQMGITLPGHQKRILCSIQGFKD

Sequence of ABL1 (P00519 whole entry): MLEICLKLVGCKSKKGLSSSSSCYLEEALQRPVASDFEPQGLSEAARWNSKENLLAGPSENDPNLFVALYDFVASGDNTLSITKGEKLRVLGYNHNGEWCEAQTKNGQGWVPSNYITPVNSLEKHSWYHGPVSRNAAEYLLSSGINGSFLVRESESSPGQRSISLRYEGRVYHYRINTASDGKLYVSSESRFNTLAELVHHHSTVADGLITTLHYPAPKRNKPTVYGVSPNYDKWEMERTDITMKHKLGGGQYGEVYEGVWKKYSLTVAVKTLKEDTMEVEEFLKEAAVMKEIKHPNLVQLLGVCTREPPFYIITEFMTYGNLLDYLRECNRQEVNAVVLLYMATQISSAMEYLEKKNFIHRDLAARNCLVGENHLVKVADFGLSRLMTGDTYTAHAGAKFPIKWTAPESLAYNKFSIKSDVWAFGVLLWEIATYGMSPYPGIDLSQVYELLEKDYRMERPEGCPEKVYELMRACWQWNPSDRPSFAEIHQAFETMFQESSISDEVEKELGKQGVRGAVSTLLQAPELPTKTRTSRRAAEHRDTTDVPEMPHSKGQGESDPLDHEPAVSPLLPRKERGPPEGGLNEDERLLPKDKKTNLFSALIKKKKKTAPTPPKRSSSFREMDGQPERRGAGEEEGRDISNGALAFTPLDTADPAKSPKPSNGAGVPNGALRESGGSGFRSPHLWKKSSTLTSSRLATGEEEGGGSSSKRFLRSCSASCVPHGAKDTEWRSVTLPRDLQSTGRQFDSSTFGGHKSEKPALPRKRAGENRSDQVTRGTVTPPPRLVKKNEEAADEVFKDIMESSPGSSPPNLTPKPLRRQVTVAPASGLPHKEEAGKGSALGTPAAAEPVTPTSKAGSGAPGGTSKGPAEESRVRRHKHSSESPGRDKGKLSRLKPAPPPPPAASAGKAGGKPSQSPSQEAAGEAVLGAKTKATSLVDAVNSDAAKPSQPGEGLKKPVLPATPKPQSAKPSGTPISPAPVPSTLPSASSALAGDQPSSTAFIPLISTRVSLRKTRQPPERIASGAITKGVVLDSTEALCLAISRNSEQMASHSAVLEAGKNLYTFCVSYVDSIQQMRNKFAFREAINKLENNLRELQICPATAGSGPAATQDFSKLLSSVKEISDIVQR
Sequence of CLK1 (P49759 whole entry): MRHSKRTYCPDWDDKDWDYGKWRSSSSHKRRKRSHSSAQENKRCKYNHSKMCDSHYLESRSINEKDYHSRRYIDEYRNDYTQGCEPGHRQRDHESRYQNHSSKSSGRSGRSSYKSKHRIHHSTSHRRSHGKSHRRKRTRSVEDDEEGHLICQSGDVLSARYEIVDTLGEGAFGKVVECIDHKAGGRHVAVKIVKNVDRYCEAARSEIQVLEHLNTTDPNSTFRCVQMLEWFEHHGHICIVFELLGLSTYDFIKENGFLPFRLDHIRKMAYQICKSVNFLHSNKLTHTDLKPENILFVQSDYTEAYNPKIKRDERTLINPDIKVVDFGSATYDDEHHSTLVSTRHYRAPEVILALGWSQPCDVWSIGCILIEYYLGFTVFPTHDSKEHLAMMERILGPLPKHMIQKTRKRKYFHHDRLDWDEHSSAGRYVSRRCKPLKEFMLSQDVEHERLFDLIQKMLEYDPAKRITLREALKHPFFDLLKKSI
Sequence of AAK1 (Q2M2I8 whole entry): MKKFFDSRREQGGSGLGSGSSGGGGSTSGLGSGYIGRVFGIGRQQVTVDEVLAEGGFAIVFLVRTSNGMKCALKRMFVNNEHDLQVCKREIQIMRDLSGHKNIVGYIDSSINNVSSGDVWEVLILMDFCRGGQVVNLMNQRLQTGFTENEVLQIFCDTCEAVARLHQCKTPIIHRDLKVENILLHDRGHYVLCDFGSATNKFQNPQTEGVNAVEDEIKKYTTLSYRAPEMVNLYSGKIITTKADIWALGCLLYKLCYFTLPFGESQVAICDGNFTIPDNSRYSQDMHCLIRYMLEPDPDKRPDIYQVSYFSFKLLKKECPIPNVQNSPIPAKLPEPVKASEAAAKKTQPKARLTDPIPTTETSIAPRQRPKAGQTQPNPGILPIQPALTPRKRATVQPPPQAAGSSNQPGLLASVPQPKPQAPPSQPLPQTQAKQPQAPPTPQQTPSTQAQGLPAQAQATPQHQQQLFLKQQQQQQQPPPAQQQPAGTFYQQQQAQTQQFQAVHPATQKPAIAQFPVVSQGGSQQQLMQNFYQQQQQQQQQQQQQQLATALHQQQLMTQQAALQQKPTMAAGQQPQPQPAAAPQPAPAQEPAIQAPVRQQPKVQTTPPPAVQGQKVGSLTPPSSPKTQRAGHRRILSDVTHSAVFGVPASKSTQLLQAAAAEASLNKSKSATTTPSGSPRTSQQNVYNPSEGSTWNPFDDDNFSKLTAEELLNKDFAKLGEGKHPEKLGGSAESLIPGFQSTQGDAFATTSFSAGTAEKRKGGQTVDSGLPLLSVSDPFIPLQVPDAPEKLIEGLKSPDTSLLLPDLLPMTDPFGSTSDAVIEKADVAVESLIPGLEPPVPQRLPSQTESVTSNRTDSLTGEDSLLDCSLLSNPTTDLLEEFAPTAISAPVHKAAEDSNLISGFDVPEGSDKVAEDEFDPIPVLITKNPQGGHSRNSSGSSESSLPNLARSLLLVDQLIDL
Sequence of CLK3 (P49761 whole entry): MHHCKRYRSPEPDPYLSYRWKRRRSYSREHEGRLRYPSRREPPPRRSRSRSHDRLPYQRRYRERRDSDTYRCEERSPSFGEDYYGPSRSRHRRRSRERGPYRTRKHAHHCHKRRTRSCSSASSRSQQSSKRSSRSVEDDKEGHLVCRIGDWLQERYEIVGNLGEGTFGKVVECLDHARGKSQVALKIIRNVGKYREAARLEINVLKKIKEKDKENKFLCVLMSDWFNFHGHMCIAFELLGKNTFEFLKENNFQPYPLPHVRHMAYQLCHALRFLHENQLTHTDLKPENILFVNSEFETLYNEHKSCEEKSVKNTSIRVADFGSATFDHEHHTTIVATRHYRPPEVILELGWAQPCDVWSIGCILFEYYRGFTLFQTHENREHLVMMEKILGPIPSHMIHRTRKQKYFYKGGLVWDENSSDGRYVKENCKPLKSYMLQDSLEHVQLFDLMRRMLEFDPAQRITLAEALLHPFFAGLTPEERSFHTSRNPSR

For `CNc1ncc2cc(-c3ccc(-c4cccc(C)n4)cc3Cl)c(=O)n(CC3OCC(N)CO3)c2n1` (stereo not shown) [compound 2, G-5555], the “dTm G-5555 (2)” value (AAK1; 10 µM, binder) was 0.6 °C, the “dTm G-5555 (2)” value (ABL1; 10 µM, binder) was 5.1 °C and the “dTm G-5555 (2)” value (CLK1; 10 µM, binder) was 0.1 °C. The “dTm G-5555 (2)” value (CLK3; 10 µM, binder) was 0.1 °C, the “dTm G-5555 (2)” value (CaMK4; 10 µM, binder) was 0.7 °C and the “dTm G-5555 (2)” value (DAPK3; 10 µM, binder) was 0.5 °C. The “dTm G-5555 (2)” value (GPRK5; 10 µM, binder) was -0.2 °C.

An IC50 (EpHA1) of 82 ± 3 nM was found for `CNc1ncc2cc(-c3cc(Cl)ccc3Cl)c(=O)n(CCCCN)c2n1` [compound 8, 8-(4-Aminobutyl)-6-(2,5-dichlorophenyl)-2-(methylamino)pyrido[2,3-d]pyrimidin-7(8H)-one] in this work.

A ΔTm at 10 µM (AAK1; read-out: dTm 6) of 0.7 °C, a ΔTm at 10 µM (ABL1; read-out: dTm 6) of 4.5 °C and a ΔTm at 10 µM (CLK1; read-out: dTm 6) of 0.2 °C were found for `CNc1ncc2cc(-c3cc(Br)ccc3Cl)c(=O)n(CCCCN)c2n1` [compound 6, 8-(4-Aminobutyl)-6-(5-bromo-2-chlorophenyl)-2-(methylamino)pyrido[2,3-d]pyrimidin-7(8H)-one] in this work. For the same compound, the ΔTm at 10 µM (CLK3; read-out: dTm 6) was -0.3 °C, the ΔTm at 10 µM (CaMK4; read-out: dTm 6) was -0.1 °C and the ΔTm at 10 µM (DAPK3; read-out: dTm 6) was -0.2 °C. For the same compound, the ΔTm at 10 µM (GPRK5; read-out: dTm 6) was 0 °C.

An IC50 (EpHA1; intact mode, HEK293T, 37 °C, 2 h, tracer displacement) of 145 ± 17 nM, a ΔTm at 10 µM (AAK1; read-out: dTm MR22 (5)) of 0.4 °C and a ΔTm at 10 µM (ABL1; read-out: dTm MR22 (5)) of 6.9 °C were found for `CNc1ncc2cc(-c3cc(F)ccc3F)c(=O)n(CCCCN)c2n1` [compound 5, 8-(4-Aminobutyl)-6-(2,5-difluorophenyl)-2-(methylamino)pyrido[2,3-d]pyrimidin-7(8H)-one] in this work. It also gave a ΔTm at 10 µM (CLK1; read-out: dTm MR22 (5)) of 0.4 °C, a ΔTm at 10 µM (CLK3; read-out: dTm MR22 (5)) of -0.4 °C and a ΔTm at 10 µM (CaMK4; read-out: dTm MR22 (5)) of -0.6 °C. It also gave a ΔTm at 10 µM (DAPK3; read-out: dTm MR22 (5)) of 0.5 °C and a ΔTm at 10 µM (GPRK5; read-out: dTm MR22 (5)) of -0.6 °C.

An IC50 (EpHA1) of 12 ± 2 nM, a ΔTm at 10 µM (AAK1; read-out: dTm MR21 (4)) of 1.6 °C and a ΔTm at 10 µM (ABL1; read-out: dTm MR21 (4)) of 9.2 °C were found for `CNc1ncc2cc(-c3ccccc3Cl)c(=O)n(CCCCN)c2n1` [compound 4, 8-(4-Aminobutyl)-6-(2-chlorophenyl)-2-(methylamino)pyrido[2,3-d]pyrimidin-7(8H)-one] in this work. It also gave a ΔTm at 10 µM (CLK1; read-out: dTm MR21 (4)) of -1.2 °C, a ΔTm at 10 µM (CLK3; read-out: dTm MR21 (4)) of 0 °C and a ΔTm at 10 µM (CaMK4; read-out: dTm MR21 (4)) of 0.8 °C. It also gave a ΔTm at 10 µM (GPRK5; read-out: dTm MR21 (4)) of -1.2 °C.

A ΔTm at 10 µM (AAK1; read-out: dTm 7) of 0.5 °C, a ΔTm at 10 µM (ABL1; read-out: dTm 7) of 4.1 °C and a ΔTm at 10 µM (CLK1; read-out: dTm 7) of 0.4 °C were found for `CNc1ncc2cc(-c3cc(Br)ccc3Cl)c(=O)n(C[C@H]3OC[C@H](N)CO3)c2n1` [compound 7, 8-(((2r,5r)-5-Amino-1,3-dioxan-2-yl)methyl)-6-(5-bromo-2-chlorophenyl)-2-(methylamino)pyrido[2,3-d]pyrimidin-7(8H)-one] in this work. For the same compound, the ΔTm at 10 µM (CLK3; read-out: dTm 7) was 0.5 °C, the ΔTm at 10 µM (CaMK4; read-out: dTm 7) was 0.1 °C and the ΔTm at 10 µM (DAPK3; read-out: dTm 7) was -0.4 °C. The ΔTm at 10 µM (GPRK5; read-out: dTm 7) was 0.2 °C.
